# Laboratory results: US10322108B2, “N-benzoate group substituted benzopyrroline-2-one derivative and use thereof” (BEIJING HANMI PHARMACEUTICAL CO., LTD., priority 2015, dated 2019)
# Read-outs that look alike come from different tables or passages of the source.
# Tests used:
# [1] = tested on: Th17 cells; assay: Differentiation inhibition experiments on Th17 cells (IL-17A content in supernatant by ELISA); format: cell-based, C57 mouse; conditions: 1 μM compound; differentiation of mouse naïve CD4+ T cells to Th17, IL-17A ELISA; read-out: Inhibition Rate (1 μM)
# Procedure: 5 μg/mL mouse CD3 antibody (purchased from BD) was coated on a 96-well plate (37° C., 2-6 hours) and stored for future use. C57 mouse lymph gland naïve CD4 positive T cells were separated using CD4+ T cell isolation kit II (purchased from MACS), and were inoculated to the coated 96-well plate at 5×10^5 cells/well/100 μL. The test sample was gradient diluted with RMPI-1640 culture medium (Gibco, 22440), and was made to be 4 times of the final concentration (starting from 1 μM, 10 times dilution, setting 6 drug concentrations). The diluted test sample was added at 50 μL/well to the test well inoculated with cells. To each of the positive and negative control wells was added 50 μL RMPI-1640 culture medium. To each of the test wells and the positive control wells was further added 50 μL mixed solution of activators (20 ug/mL mouse CD28 antibody (purchased from BD); 40 ug/mL mouse IL-4 antibody (purchased from BD); 40 ug/mL mouse IFNγ antibody (purchased from BD); 4 ng/mL mouse TGF-β1 (purchased from R&D); 200 ng/mL mouse IL-6 (purchased from R&D); 20 ng/mL mouse IL-23 (purchased from R&D)) having a 4-fold final concentration; to the negative control well was added 50 μL RMPI-1640 culture medium. The loaded 96-well plate was placed in an incubator at 37° C., 5% CO2 and was cultured for 66 hours, followed by adding to each well 50 uL mixed solution of PMA (purchased from Sigma, working concentration: 50 ng/mL) and Ionomycin (purchased from Sigma, working concentration: 1 ug/mL), and culturing at 37° C. for another 6 hours. After the culture was completed, a cell culture supernatant was taken, and the IL-17A content in the supernatant was determined using mouse IL-17A ELISA kit (purchased from Dakewe), and the inhibition rate and the IC50 value were calculated. The specific operation followed the kit specification (see below):
# (1) Determining the number of required strips according to the number of the test wells (blank and standard); taking out the Washing buffer (50×) and the ready-to-use solution from the kit 20 min in advance to balance to room temperature.
# (2) Loading samples: adding diluted Cytokine standard to the standard well at 100 μL/well, adding the sample to the sample well at 100 μL/well, setting a blank well, in which Dilution buffer R (1×) was used instead of the sample and the standard.
# (3) Adding testing antibody: adding diluted Biotinylated antibody at 50 μL/well; covering with a sealing film after mixing uniformly, and incubating at 37° C. for 90 min.
# (4) Washing the plate: deducting the liquid in the well, adding 1× washing buffer at 300 μL/well; maintain for 1 min, then discarding the liquid in the well; repeating 4 times, each time deducting to dryness on filter pater.
# (5) Adding enzyme: adding diluted Streptavidin-HRP at 100 μL/well; covering with a sealing film, and incubating at 37° C. for 30 min.
# (6) Washing the plate: repeating […].
# (7) Color development: adding TMB at 100 μL/well, incubating at 37° C. in a dark place for 5-30 min, and determining to terminate the reaction according to the depth of the color in the well (dark blue). Normally, a good effect can be achieved by color development for 10-20 min.
# (8) Terminating the reaction: rapidly adding a stop solution at 100 μL/well to terminate the reaction.
# Reading the plate: 10 min after termination, reading the value using a measurement wavelength of 450 nm.
# [2] = biological target: RORγ-LBD (Homo sapiens (Human), UniProt P51449); assay: LanthaScreen TR-FRET screening of RORγ-LBD / co-activator (Fluorescein-D22) interaction
# [3] = read-out: IC50 Values, TR-FRET, 2 nM RORγ-LBD, 150 nM Fluorescein-D22 co-activator
# Sequence of RORγ-LBD (P51449 269-508): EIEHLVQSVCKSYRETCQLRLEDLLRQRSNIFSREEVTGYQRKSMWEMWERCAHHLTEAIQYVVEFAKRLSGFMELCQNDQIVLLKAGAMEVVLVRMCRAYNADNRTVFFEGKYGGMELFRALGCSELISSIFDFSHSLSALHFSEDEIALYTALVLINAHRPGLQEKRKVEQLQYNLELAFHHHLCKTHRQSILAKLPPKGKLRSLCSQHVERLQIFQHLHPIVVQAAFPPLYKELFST
compound,measurement,setting,value
"Cc1cccc2c1/C(=C/c1c(Cl)cccc1Cl)C(=O)N2c1ccc(C(=O)O)c(O)c1 [Example 4, (trans)-4-(3-(2,6-dichloro-benzylidene)-4-methylindolin-2-on-1-yl)-2-hydroxybenzoic acid]",inhibition at 1 µM,[1],> 50%
same,IC50,[2]; [3],< 100 nM
"O=C(O)c1ccc(N2C(=O)/C(=C\c3c(Cl)cccc3Cl)c3c(F)cccc32)cc1 [Example 15A, (trans)-4-(3-(2,6-dichloro-benzylidene)-4-fluoro-indolin-2-on-1-yl)-benzoic acid]",inhibition at 1 µM,[1],> 50%
same,IC50,[2]; [3],< 100 nM
"Cc1cccc2c1/C(=C/c1c(Cl)cccc1C1CC1)C(=O)N2c1ccc(C(=O)O)c(O)c1 [Example 1, (trans)-4-(3-(2-chloro-6-cyclopropyl-benzylidene)-4-methylindolin-2-on-1-yl)-2-hydroxy benzoic acid]",inhibition at 1 µM,[1],> 50%
same,IC50,[2]; [3],< 100 nM
"COc1cccc(Cl)c1/C=C1\C(=O)N(c2ccc(C(=O)O)c(O)c2)c2cccc(C)c21 [Example 3, (trans)-4-(3-(2-chloro-6-methoxy-benzylidene)-4-methylindolin-2-on-1-yl)-2-hydroxybenzoic acid]",inhibition at 1 µM,[1],> 50%
same,IC50,[2]; [3],< 100 nM
"Cc1cccc(Cl)c1/C=C1\C(=O)N(c2ccc(C(=O)O)c(O)c2)c2cccc(C)c21 [Example 10, (trans)-4-(3-(2-chloro-6-methyl-benzylidene)-4-methylindolin-2-on-1-yl)-2-hydroxybenzoic acid]",inhibition at 1 µM,[1],> 50%
same,IC50,[2]; [3],< 100 nM
"Cc1cccc2c1/C(=C/c1c(Cl)cccc1C1CC1)C(=O)N2c1ccc(C(=O)O)cc1 [Example 2A, (trans)-4-(3-(2-chloro-6-cyclopropyl-benzylidene)-4-methylindolin-2-on-1-yl)-benzoic acid]",inhibition at 1 µM,[1],> 50%
same,IC50,[2]; [3],< 100 nM
"O=C(O)c1ccc(N2C(=O)/C(=C/c3c(Cl)cccc3Cl)c3c(F)cccc32)cc1 [Example 15B, (cis)-4-(3-(2,6-dichloro-benzylidene)-4-fluoro-indolin-2-on-1-yl)-benzoic acid]",inhibition at 1 µM,[1],< 50%
same,IC50,[2]; [3],< 100 nM
"O=C(O)c1ccc(N2C(=O)/C(=C/c3c(Cl)cccc3C3CC3)c3c(F)cccc32)cc1 [Example 16B, (cis)-4-(3-(2-chloro-6-cyclopropyl-benzylidene)-4-fluoro-indolin-2-on-1-yl)-benzoic acid]",inhibition at 1 µM,[1],> 50%
same,IC50,[2]; [3],< 100 nM
"O=C(O)c1ccc(N2C(=O)/C(=C\c3c(Cl)cccc3Cl)c3c(F)cccc32)cc1O [Example 22A, (trans)-4-(3-(2,6-dichloro-benzylidene)-4-fluoro-indolin-2-on-1-yl)-2-hydroxy-benzoic acid]",IC50,[2]; [3],< 100 nM
"O=C(O)c1ccc(N2C(=O)/C(=C\c3c(Cl)cccc3C3CC3)c3c(Cl)cccc32)cc1O [Example 14, 4-(3-(2-chloro-6-cyclopropyl-benzylidene)-4-chloro-indolin-2-on-1-yl)-2-hydroxybenzolic acid]",IC50,[2],100 to 1000 nM
"O=C(O)c1ccc(N2C(=O)/C(=C\c3c(F)cccc3F)c3c(F)cccc32)cc1 [Example 18A, (trans)-4-(3-(2,6-difluoro-benzylidene)-4-fluoro-indolin-2-on-1-yl)-benzoic acid]",IC50,[2],1000 to 10000 nM
"O=C(O)c1ccc(N2C(=O)/C(=C\c3c(Cl)cccc3C3CC3)c3c(F)cccc32)cc1O [Example 21A, (trans)-4-(3-(2-chloro-6-cyclopropyl-benzylidene)-4-fluoro-indolin-2-on-1-yl)-2-hydroxy-benzoic acid]",IC50,[2]; [3],< 100 nM
